“And” between values parts separate entries of the source, which are not always exact repeats. Identical values can stand only once. Counter-ions that a name gives are not always drawn.
Tests used:
[1] = internal / in vivo, background; cited from earlier work
[2] = system: Mouse peritoneal leucocytes
Procedure: (§1) In monolayer cellular cultures (L-cells, mouse embryonal fibroblasts, human diploid embryonal pulmonary fibroblasts), the interferon titre is measured and the antiviral resistance is simultaneously determined. […] Incubation of the cultures is carried out for 24 hours at 37° C.; The culture medium after determining its cytotoxicity microscopically is collected for the interferon titre measurement. The cells are rinsed in Hanks' saline solution and inoculated by 100 TCID50 virus of the vesicular stomatite (Indiana strain). The cytopathic effect and the infectious virus yield are specified the basis of which the state of the antiviral resistancy is determined.
(§2) The interferon titre is determined as follows: by the plaque-inhibition method in L-cells or in human embryonal diploid fibroblasts using the vesicular stomatite virus (Indiana strain) by a detector virus; by the cytopathic effect inhibition method of the same virus (using human embryonal diploid fibroblasts). It is expressed in IU/ml by comparing the reference preparations of mouse or human interferon.

acute toxicity (LD50) = assay: acute toxicity (LD50); parameters: species or system white mice; conditions: mouse, in vivo; intravenous; read-out: single LD50
Semliki virus = system: Semliki virus; parameters: species or system white mice; conditions: mouse, in vivo
[3] = system: some DNA and RNA-containing viruses; conditions: cellular cultures, background; cited from earlier work
[4] = system: Human diploid embryonal fibroblasts; assay: cells; conditions: Fibroblast, read-out: MinIFN-IC (minimum interferon-inducing concentration)
Procedure: as §1, §2

Herpes simplex 1 virus = system: Herpes simplex 1 virus; parameters: species or system white mice; conditions: mouse, in vivo
serum interferon [5] = assay: interferon-inducing activity in vivo in white mice (serum interferon titre)
Procedure: Serum samples for measuring the interferon titre are taken on the 6th, 12th, 24th, 48th, 72nd and 96th hour (mixed serum sample of minimum 8 animals).
as §2

influenza virus A = influenza virus A experimental infection in white mice; format: in vivo; conditions: oral or intraperitoneal single dose 24 h before, 24 or 72 h after inoculation
[6] = system: Mouse peritoneal leucocytes; assay: cells; conditions: Leucocyte, read-out: MinIFN-IC (minimum interferon-inducing concentration)
Procedure: as §1, §2

L-cells [7] = system: L-cells
Procedure: as §1, §2

[8] = system: Human diploid embryonal fibroblasts
Procedure: as §1, §2

L-cells [9] = assay: cells; conditions: Mus musculus, read-out: MinIFN-IC (minimum interferon-inducing concentration)
Procedure: as §1, §2

serum interferon [10] = assay: serum interferon titre in human volunteers; parameters: average geometrical interferon titre: dose or concentration left out as unconfirmed
Procedure: as §2

[11] = system: Mouse embryonal fibroblasts; assay: interferon induction in mouse embryonal fibroblasts
Procedure: as §1, §2

[12] = intravenous, 0.1 mg/kg, 48th hour

## poly I:C
[1]
  toxicity: toxic internally

## OCCN(CCO)c1nc(N2CCCCC2)c2nc(N(CCO)CCO)nc(N3CCCCC3)c2n1 [Dipyridamole, 2,6-bis (diethanolamino)-4,8-dipiperidinopyramido [5,4-d]pyrimidine]
[2]
  Maximum interferon titre: ≥ 256 IU/ml
  OptINF-IC (optimum interferon-inducing concentration): 100-1000
  interferon titre compared with double-stranded RNA of phage f2: higher than that induced by double-stranded RNA of phague f2 of E. coli
  optimum interferon-inducing concentration: 100 µM
Acute toxicity (LD50)
  LD50: 150 mg/kg
Semliki virus
  Lethality % M ± m: 30.0 ± 15.27% and 40.0 ± 16.32%
  Lethality No.: 3/10 and 4/10
  Mean survival time: 22.6 ± 3.77 days and 20.7 ± 3.82 days
  Protection coefficient: 2.4 and 1.8
  antiviral effect in oral application vs intraperitoneal: much stronger
  protective effect: marked protective effect
  t: 3.02 and 2.64
[3]
  antiviral effect in in vitro testing: antiviral effect
[4]
  minimal effective concentration: 10 µM
Herpes simplex 1 virus
  Lethality % M ± m: 55.0 ± 11.41%
  Lethality No.: 11/20
  Mean survival time: 17.3 ± 2.64 days
  Protection coefficient: 1.81
  antiviral effect in oral application vs intraperitoneal: much stronger
  protective effect: marked protective effect
  t: 3.94
Serum interferon [5]; even 96 hours after administration
  preservation of high serum interferon levels: relatively continuous preservation of the high interferon levels
Serum interferon [5]; intraperitoneal, 16.7 mg/kg
  time of peak interferon levels: 24 to 48 h
Serum interferon [5]; intraperitoneal, 16.7 mg/kg, 24-48th hour
  maximum titres / peak levels: 256 IU/ml
Serum interferon [5]; intraperitoneal, 16.7 mg/kg, until 120th hour
  interferon concentrations until the 120th hour: Marked concentrations
Serum interferon [5]; intraperitoneal, lower doses, under 0.1 mg/kg inclusive
  interferon-inducing activity of lower doses: lower but better marked activity
Serum interferon [5]; intraperitoneal, "or more"
  effective doses: 0.1 to 16.7 mg/kg
Serum interferon [5]; intravenous
  effective doses: 0.01 to 50 mg/kg
Serum interferon [5]; intravenous, 0.01 mg/kg, 72nd hour
  Interferon titre in serum: 16 IU/ml
Serum interferon [5]; intravenous, 0.05 mg/kg, 24th hour
  Interferon titre in serum: < 4 IU/ml
Serum interferon [5]; intravenous, 0.05 mg/kg, 48th hour
  Interferon titre in serum: 64 IU/ml
Serum interferon [5]; intravenous, 0.05 mg/kg, 72nd hour
  Interferon titre in serum: 32 IU/ml
Serum interferon [5]; intravenous, 0.1 mg/kg, 6th hour
  Interferon titre in serum: ≤ 4 IU/ml
Serum interferon [5]; intravenous, 0.1 mg/kg, 12th hour
  Interferon titre in serum: ≤ 4 IU/ml
Serum interferon [5]; intravenous, 0.1 mg/kg, 24th hour
  Interferon titre in serum: ≤ 4 IU/ml
Serum interferon [5]; [12]
  Interferon titre in serum: 128 IU/ml
  maximum titres: 128 IU/ml
Serum interferon [5]; intravenous, 0.1 mg/kg, 72nd hour
  Interferon titre in serum: 32 IU/ml
Serum interferon [5]; intravenous, 0.2 mg/kg, 24th hour
  Interferon titre in serum: ≤ 4 IU/ml
Serum interferon [5]; intravenous, 0.2 mg/kg, 48th hour
  Interferon titre in serum: 32 IU/ml
Serum interferon [5]; intravenous, 0.2 mg/kg, 72nd hour
  Interferon titre in serum: 32 IU/ml
Serum interferon [5]; intravenous, 0.6 mg/kg, 6th hour
  Interferon titre in serum: < 4 IU/ml
Serum interferon [5]; intravenous, 0.6 mg/kg, 12th hour
  Interferon titre in serum: 8 IU/ml
Serum interferon [5]; intravenous, 0.6 mg/kg, 24th hour
  Interferon titre in serum: 32 IU/ml
Serum interferon [5]; intravenous, 0.6 mg/kg, 48th hour
  Interferon titre in serum: 16 IU/ml
Serum interferon [5]; intravenous, 0.6 mg/kg, 72nd hour
  Interferon titre in serum: 16 IU/ml
Serum interferon [5]; intravenous, 1.8 mg/kg, 12th hour
  Interferon titre in serum: 16 IU/ml
Serum interferon [5]; intravenous, 1.8 mg/kg, 24th hour
  Interferon titre in serum: 16 IU/ml
Serum interferon [5]; intravenous, 1.8 mg/kg, 72nd hour
  Interferon titre in serum: 8 IU/ml
Serum interferon [5]; intravenous, 5.5 mg/kg, 12th hour
  Interferon titre in serum: 16 IU/ml
Serum interferon [5]; intravenous, 5.5 mg/kg, 24th hour
  Interferon titre in serum: 16 IU/ml
Serum interferon [5]; intravenous, 17.7 mg/kg, 12th hour
  Interferon titre in serum: 32 IU/ml
Serum interferon [5]; intravenous, 17.7 mg/kg, 24th hour
  Interferon titre in serum: 16 IU/ml
Serum interferon [5]; intravenous, 50.0 mg/kg, 12th hour
  Interferon titre in serum: 8 IU/ml
Serum interferon [5]; intravenous, 50.0 mg/kg, 24th hour
  Interferon titre in serum: 8(4) IU/ml
Serum interferon [5]; intravenous, higher doses than 0.1 mg/kg
  time of maximum interferon levels: 12 to 24 h
Serum interferon [5]; oral
  time of maximum titres: 24 to 48 h
  interferon levels at 120th hour: marked interferon levels in the blood
Serum interferon [5]; oral, 6.25-100 mg/kg, 12th hour
  serum interferon level at 12th hour: 128-256 IU/ml
Serum interferon [5]; oral, 12.5 or 25 mg/kg, 48th hour
  peak serum interferon values: 4096-8192 IU/ml
Serum interferon [5]; oral, 24-48 hour
  maximum serum interferon titres: 4096-8192 IU/ml
Serum interferon [5]; oral, listed as dipyridamole
  interferon levels at 120th hour: higher than those in the control (placebo) group
Serum interferon [5]; oral, single doses, 12th hour
  serum interferon level at 12th hour: 128-256 IU/ml
Influenza virus A
  protective effect: marked protective effect
[6]
  minimal effective concentration: 3 µM
L-cells [7]
  Maximum interferon titre: ≥ 128 IU/ml
  OptINF-IC (optimum interferon-inducing concentration): 30-300 micromol/1
  induced interferon titre: over 128 IU/ml
  induced interferon titres: exceed 128 IU/ml
  interferon production compared with poly I:C: markedly exceeds the interferon production of poly I:C
[8]
  Maximum interferon titre: 16-32
  OptINF-IC (optimum interferon-inducing concentration): 100-300 micromol/1
L-cells [9]
  minimal effective concentration: 10 µM
Serum interferon [10]; 0 hours after administration (baseline)
  Mean serum interferon titre, positive responders: 5.2 ± 1.7 IU/ml
Serum interferon [10]; 100 mg single oral dose, 20 men and women, 24th and 48th hour
  subjects with marked raising of serum interferon level: 80%
Serum interferon [10]; 24-48 hours after administration
  Mean serum interferon titre, positive responders: 1069.0 ± 479.7 IU/ml
Serum interferon [10]; 24-48 hours, oral
  increase of average geometrical interferon titres vs initial level: Over 200 time
Serum interferon [10]; 24-48 hours, oral single doses as printed
  average geometrical interferon titre: 1069.0±479.7 IU/ml
Serum interferon [10]; initial level before dipyridamole
  average geometrical interferon titre, initial level: 5.2±1.7 IU/ml
Serum interferon [10]; oral, single doses (1-2 mg/kg)
  treated subjects with marked interferon production: 80%
[11]
  OptINF-IC (optimum interferon-inducing concentration): 300 micromol/1
[11]; Mus musculus, Fibroblast, read-out: MinIFN-IC (minimum interferon-inducing concentration)
  minimal effective concentration: 100 µM
[11]; induced by OptINF-IC
  Maximum interferon titre: 16 IU/ml

## CCN(CC)CCOc1ccc2c(c1)C(=O)c1cc(OCCN(CC)CC)ccc1-2 [tilorone-hydrochloride]
[1]
  toxicity: toxic and unsuitable for clinical application

From patent US4499093A, “Interferon induction method” (Dso "Pharmachim", priority 1982, dated 1985)
